According to ChEMBL document CHEMBL1133786, “Synthesis and dopaminergic properties of the two enantiomers of 3-(3,4-dimethylphenyl)-1-propylpiperidine, a potent and selective dopamine D4 receptor ligand” (Bioorg Med Chem Lett, 2001):

Assays:
[1] = Binding affinity for dopamine D2-D3 like receptor labelled with [3H]YM-09151-2 in striatum; format: tissue-based, Bos taurus
[2] = Binding affinity for dopamine D4-like receptor labelled with [3H]YM-09151-2 in retina; format: tissue-based, Bos taurus
[3] = biological target: D(1A) dopamine receptor (Bos taurus, UniProt Q95136); assay: Binding affinity for dopamine D1-like receptor labelled with [3H]SCH-23390 in retina; format: tissue-based
Chain of D(1A) dopamine receptor (Q95136 whole entry): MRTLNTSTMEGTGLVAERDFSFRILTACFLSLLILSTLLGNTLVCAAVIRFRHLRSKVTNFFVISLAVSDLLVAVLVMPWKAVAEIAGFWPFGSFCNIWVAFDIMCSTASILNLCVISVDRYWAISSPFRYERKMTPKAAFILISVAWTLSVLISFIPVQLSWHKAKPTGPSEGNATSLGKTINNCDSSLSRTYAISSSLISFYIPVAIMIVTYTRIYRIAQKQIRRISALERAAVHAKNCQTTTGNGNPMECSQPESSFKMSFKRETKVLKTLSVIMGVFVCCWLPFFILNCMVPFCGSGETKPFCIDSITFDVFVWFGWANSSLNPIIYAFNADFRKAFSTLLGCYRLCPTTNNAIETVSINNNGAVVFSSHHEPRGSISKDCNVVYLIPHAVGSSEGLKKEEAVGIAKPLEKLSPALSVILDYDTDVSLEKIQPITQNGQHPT

| SMILES | Ki [1] | Ki [2] | Ki [3] |
| --- | --- | --- | --- |
| CCCN1CCC[C@@H](c2ccc(C)c(C)c2)C1 | 5000 nM | 23 nM | > 100000 nM |
| CCCN1CCC[C@H](c2ccc(C)c(C)c2)C1 | > 100000 nM | 4 nM | > 100000 nM |
| CCCN1CCCC(c2ccc(C)c(C)c2)C1 (centres undefined) | 11000 nM | 10 nM | > 100000 nM |
| CCCN1CCC[C@H](c2cccc(O)c2)C1 | 404 nM | 397 nM | – |
| NCCc1ccc(O)c(O)c1 [DOPAMINE] | 130 nM | 15 nM | – |
| Cc1cccc(C(=O)NCN2CCN(c3ccccc3C#N)CC2)c1 [PD-168,077] | 18300 nM | 25 nM | – |
| CCCN1CCC[C@@H](c2cccc(O)c2)C1 [PRECLAMOL] | 8 nM | 187 nM | – |
| CCCN1CCC[C@@H]2Cc3n[nH]cc3C[C@H]21 [QUINPIROLE] | 241 nM | 59 nM | – |
